Measured values from patent publication US11655216B2 (priority 2016, dated 2023).
Like-named read-outs stand apart in the source and are kept apart here.

Legend:
[1] = molecular target: T1, glutathione-S-transferase (GST) tagged LXRbeta LBD (ligand binding domain) (Homo sapiens, UniProt P55055); test: LanthaScreen TR-FRET Liver X Receptor Coactivator Assay, LXR beta; type: biochemical; settings: for EC50: LXR beta IP, potency (Inflection Point), compound-induced co-activator recruitment, TR-FRET; for Emax: read-out: LXR beta actiivty at max dose, efficacy (% Emax) in relation to reference dual agonist T0901317
T1 construct: purchased Invitrogen pv4658
T1 sequence (P55055 222-460 limits assumed): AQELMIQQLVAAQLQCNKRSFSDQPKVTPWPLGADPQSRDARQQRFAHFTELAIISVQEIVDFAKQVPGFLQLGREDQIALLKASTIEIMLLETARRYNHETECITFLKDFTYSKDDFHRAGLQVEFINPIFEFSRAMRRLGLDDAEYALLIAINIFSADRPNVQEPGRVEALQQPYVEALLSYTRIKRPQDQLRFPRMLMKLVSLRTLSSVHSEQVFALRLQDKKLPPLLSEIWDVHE
Method in brief: (§1)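 Test ligands were combined with the receptor LBD, after which terbium-labelled anti-GST antibody and a fluorescein-tagged coactivator peptide were introduced together. Plates sat at room temperature, then time-resolved FRET was measured.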

[2] = molecular target: T2, glutathione-S-transferase (GST) tagged LXRalpha LBD (ligand binding domain) (Homo sapiens, UniProt Q13133); test: biochemical
T2 construct: purchased Invitrogen pv4655
T2 sequence (Q13133 209-447 limits assumed): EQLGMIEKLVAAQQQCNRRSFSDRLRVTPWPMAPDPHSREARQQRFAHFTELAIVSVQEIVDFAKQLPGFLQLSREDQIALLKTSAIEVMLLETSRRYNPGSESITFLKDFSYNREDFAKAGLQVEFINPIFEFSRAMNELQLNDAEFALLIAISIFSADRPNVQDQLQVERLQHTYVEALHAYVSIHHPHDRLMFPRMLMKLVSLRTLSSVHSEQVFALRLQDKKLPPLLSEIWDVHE
Method in brief: as §1

[3] = LXR alpha IP, potency (Inflection Point), compound-induced co-activator recruitment, TR-FRET
[4] = read-out: LXR alpha actiivty at max dose, efficacy (% Emax) in relation to reference dual agonist T0901317
[5] = efficacy (% Emax) in relation to reference dual agonist T0901317, read-out: LXR alpha actiivty at max dose
[6] = potency (Inflection Point), compound-induced co-activator recruitment, TR-FRET

`CN(C)C(=O)c1ccc(OC[C@H]2C[C@@H]2C2CCN(C(=O)C(C)(C)c3ccccc3)CC2)cc1Cl` (single isomer, unassigned) [Example 32-6, 2-chloro-N,N-dimethyl-4-(((1S,2R or 1R,2S)-2-(1-(2-methyl-2-phenylpropanoyl)piperidin-4-yl)cyclopropyl)methoxy) benzamide] showed an EC50 [1] of 42 nM, an Emax [1] of 75% and an EC50 [2, 3] of 631 nM. It also gave an Emax [2, 4] of 33%.
`CN(C)C(=O)c1ccc(OCC2CC3(CCN(C(=O)C(O)(c4ccccc4)C(F)(F)F)CC3)C2)cc1Cl` (single isomer, unassigned) [Example 33-1, 2-chloro-N,N-dimethyl-4-((7-((R or S)-3,3,3-trifluoro-2-hydroxy-2-phenylpropanoyl)-7-azaspiro[3.5]nonan-2-yl)methoxy)benzamide] was tested, and the EC50 [1] was 9 nM, the Emax [1] was 69% and the EC50 [2, 3] was 329 nM. For the same compound, the Emax [2, 4] was 42%.
With `CN(C)C(=O)c1ccc(OCCC2CC3(CCN(C(=O)C(O)(c4ccccc4)C(F)(F)F)CC3)C2)cc1Cl` (single isomer, unassigned) [Example 34-1, 2-chloro-N,N-dimethyl-4-(2-(7-((R or S)-3,3,3-trifluoro-2-hydroxy-2-phenylpropanoyl)-7-azaspiro[3.5]nonan-2-yl)ethoxy)benzamide] the EC50 [1] was 16 nM, the Emax [1] was 113% and the EC50 [2, 3] was 551 nM. For the same compound, the Emax [2, 4] was 46%.
`CN(C)C(=O)c1ccc(OCCCC2CC3(CCN(C(=O)C(O)(c4ccccc4)C(F)(F)F)CC3)C2)cc1Cl` (single isomer, unassigned) [Example 35-1, 2-chloro-N,N-dimethyl-4-(3-(7-((R or S)-3,3,3-trifluoro-2-hydroxy-2-phenylpropanoyl)-7-azaspiro[3.5]nonan-2-yl)propoxy)benzamide] showed an EC50 [1] of 69 nM, an Emax [1] of 61% and an Emax [2, 5] of 27%. For the same compound, the EC50 ([2]; potency (Inflection Point), compound-induced co-activator recruitment, TR-FRET, read-out: LXR alpha IP) was 546 nM.
Compound `COc1cccc(C(O)(C(=O)N2CCC3(CCC3CCCOc3ccc(C(=O)N(C)C)c(Cl)c3)CC2)C(F)(F)F)c1` (single isomer, unassigned) [Example 36-1, 2-chloro-N,N-dimethyl-4-(3-(7-((R or S)-3,3,3-trifluoro-2-hydroxy-2-(3-methoxyphenyl)propanoyl)-7-azaspiro[3.5]nonan-1-yl)propoxy)benzamide] has an EC50 [1] of 66 nM, an Emax [1] of 52% and an Emax [2, 5] of 3%. For the same compound, the “LXR alpha IP” value [2, 6] was “No IP”.
`CN(C)C(=O)c1ccc(O[C@H]2C[C@@H](CC3CCN(C(=O)[C@](O)(c4ccccc4)C(F)(F)F)CC3)C2)cc1Cl` (single isomer, unassigned) [Example 37-1, 2-chloro-N,N-dimethyl-4-((1R,3s)-3-((1-((R or S)-3,3,3-trifluoro-2-hydroxy-2-phenylpropanoyl)piperidin-4-yl)methyl)cyclobutoxy)benzamide] was tested, and the EC50 [1] was 10 nM, the Emax [1] was 131% and the EC50 ([2]; LXR alpha IP) was 381 nM. For the same compound, the Emax ([2]; read-out: LXR alpha actiivty at max dose) was 42%.
In the case of `CN(C)C(=O)c1ccc(O[C@H]2C[C@@H](CC3CCN(C(=O)[C@](O)(c4cccc(OC5CC5)c4)C(F)(F)F)CC3)C2)cc1Cl` (single isomer, unassigned) [Example 37-2, 2-chloro-4-((1R,3s)-3-((1-((R or S)-2-(3-cyclopropoxyphenyl)-3,3,3-trifluoro-2-hydroxypropanoyl)piperidin-4-yl)methyl)cyclobutoxy)-N,N-dimethylbenzamide], the EC50 [1] is reported as 40 nM, the Emax [1] is reported as 109% and the “LXR alpha IP” value [2, 6] is reported as “No IP”. It also gave an Emax [2, 4] of 2%.
With `CCOc1cccc([C@@](O)(C(=O)N2CCC(C[C@H]3C[C@@H](Oc4ccc(C(=O)N(C)C)c(Cl)c4)C3)CC2)C(F)(F)F)c1` (single isomer, unassigned) [Example 37-3, 2-chloro-4-((1R,3s)-3-((1-((R or S)-2-(3-ethoxyphenyl)-3,3,3-trifluoro-2-hydroxypropanoyl)piperidin-4-yl)methyl)cyclobutoxy)-N,N-dimethylbenzamide] the EC50 [1] was 17 nM, the Emax [1] was 124% and the “LXR alpha IP” value [2, 6] was “No IP”. It also gave an Emax [2, 4] of 9%.
In the case of `CCc1cccc([C@@](O)(C(=O)N2CCC(C[C@H]3C[C@@H](Oc4ccc(C(=O)N(C)C)c(Cl)c4)C3)CC2)C(F)(F)F)c1` (single isomer, unassigned) [Example 37-4, 2-chloro-4-((1R,3s)-3-((1-((R or S)-2-(3-ethylphenyl)-3,3,3-trifluoro-2-hydroxypropanoyl)piperidin-4-yl)methyl)cyclobutoxy)-N,N-dimethylbenzamide], the EC50 [1] is reported as 16 nM, the Emax [1] is reported as 120% and the “LXR alpha IP” value [2, 6] is reported as “No IP”. For the same compound, the Emax [2, 4] was 13%.
With `CN(C)C(=O)c1ccc(O[C@H]2C[C@@H](CC3CCN(C(=O)[C@](O)(c4cccc(C5CC5)c4)C(F)(F)F)CC3)C2)cc1Cl` (single isomer, unassigned) [Example 37-5, 2-chloro-4-((1R,3s)-3-((1-((R or S)-2-(3-cyclopropylphenyl)-3,3,3-trifluoro-2-hydroxypropanoyl)piperidin-4-yl)methyl)cyclobutoxy)-N,N-dimethylbenzamide] the EC50 [1] was 6 nM, the Emax [1] was 134% and the EC50 [2, 3] was 401 nM. It also gave an Emax [2, 4] of 30%.
Work on `CN(C)C(=O)c1ccc(O[C@H]2C[C@@H](CC3CCN(C(=O)[C@](O)(c4cccc(C(F)(F)F)c4)C(F)(F)F)CC3)C2)cc1Cl` (single isomer, unassigned) [Example 37-6, 2-chloro-N,N-dimethyl-4-((1R,3s)-3-((1-((R or S)-3,3,3-trifluoro-2-hydroxy-2-(3-(trifluoromethyl)phenyl)propanoyl)piperidin-4-yl)methyl)cyclobutoxy) benzamide] yielded an EC50 [1] of 15 nM, an Emax [1] of 119% and an EC50 [2, 3] of 602 nM. For the same compound, the Emax [2, 4] was 31%.
In the case of `COc1cccc([C@](O)(C(=O)N2CCC(C[C@H]3C[C@@H](Oc4ccc(C(=O)N(C)C)c(Cl)c4)C3)CC2)C(F)F)c1` (single isomer, unassigned) [Example 37-7, 2-chloro-4-((1R,3s)-3-((1-((R or S)-3,3-difluoro-2-hydroxy-2-(3-methoxyphenyl)propanoyl)piperidin-4-yl)methyl)cyclobutoxy)-N,N-dimethylbenzamide], the EC50 [1] is reported as 32 nM, the Emax [1] is reported as 95% and the “LXR alpha IP” value [2, 6] is reported as “No IP”. It also gave an Emax [2, 4] of 4%.
In the case of `COc1cccc([C@@](O)(C(=O)N2CCC(C[C@H]3C[C@@H](Oc4ccc(C(=O)N(C)C)c(Cl)c4)C3)CC2)C(F)F)c1` (single isomer, unassigned) [Example 37-8, 2-chloro-4-((1R,3s)-3-((1-((R or S)-3,3-difluoro-2-hydroxy-2-(3-methoxyphenyl)propanoyl)piperidin-4-yl)methyl)cyclobutoxy)-N,N-dimethylbenzamide], the EC50 [1] is reported as 354 nM, the Emax [1] is reported as 51% and the “LXR alpha IP” value [2, 6] is reported as “No IP”. It also gave an Emax [2, 4] of 0%.
In the case of `CN(C)C(=O)c1ccc(O[C@H]2C[C@@H](CC3CCN(C(=O)[C@](O)(c4cccc(OC(F)F)c4)C(F)(F)F)CC3)C2)cc1Cl` (single isomer, unassigned) [Example 37-9, 2-chloro-4-((1R,3s)-3-((1-((R or S)-2-(3-(difluoromethoxy)phenyl)-3,3,3-trifluoro-2-hydroxypropanoyl)piperidin-4-yl)methyl)cyclobutoxy)-N,N-dimethylbenzamide], the EC50 [1] is reported as 16 nM, the Emax [1] is reported as 111% and the EC50 [2, 3] is reported as 1020 nM. It also gave an Emax [2, 4] of 25%.
